The values that follow come from patent publication US11730742B2, “Pharmaceutical use of thiophene [3,2-d] pyrimidine-4-ketone compound” (SHANGHAI INSTITUTE OF MATERIA MEDICA, CHINESE ACADEMY OF …, priority 2018, dated 2023).

Test [1] has as its system Human hepatic stellate cell line LX-2. Description: Inhibition of TGF-β-induced hepatic stellate cell activation (α-SMA, fibronectin by Western Blot). The settings on record: LX-2, 10 ng/mL TGF-β plus compound for 24 hours; for inhibition of the activation of hepatic stellate cells HSC: α-SMA and fibronectin by Western Blot. The test is classed as cell-based. The text has this: Human hepatic stellate cell line LX-2 was used in cell function experiments. […] By comparing the expression levels of extracellular matrix in the TGF-β group and the cell group in which TGF-β and the compound to be tested were both added at the same time, the efficacy of the compound in alleviating liver fibrosis through hepatic stellate cells was characterized.
The cell experiment procedure was as follows. The human hepatic stellate cell line LX-2 was selected and inoculated into the treated 24-well plate at 7.5×10^4/well. After the cells were adhered overnight and they were subjected to starvation treatment for 12 hours, the cells were treated with 10 ng/mL TGF-β and the corresponding test compound for 24 hours and then protein samples were collected. The expression of extracellular matrix represented by α-smooth muscle myofilament (α-SMA) and fibronectin was detected by Western Blot.

Test [2] has as its system CCl4-induced liver fibrosis model mice. Description: CCl4-induced liver fibrosis model mice, multiple doses, comparison with sitagliptin (Example 6). In kind it is in vivo. The settings on record: oral gavage twice a day, 6 weeks. The procedure:
In this experiment, CCl4-induced liver fibrosis model mice were used to investigate the effect of long-term oral administration of compound DC291407 under multiple doses on liver fibrosis in the model mice, and comparison was conducted with the same dose of sitagliptin.
Animal experiment: Male C57BL/6j mice were injected intraperitoneally with 2 mL/kg, 10% CCl4 (dissolved in olive oil) three times a week to induce liver fibrosis model. Two weeks after modeling, the blood was taken from the retro-ocular venous plexus of the mice, and serum ALT and AST indexes were detected. According to ALT, AST, body weight and other indexes, the mice were randomly divided into 8 groups with 10 mice in each group. There were the models control group (vehicle), DC291407 low-dose group (6 mg/kg), DC291407 middle-dose group (20 mg/kg), DC291407 high-dose group (60 mg/kg), sitagliptin low-dose group (6 mg/kg), Sitagliptin middle-dose group (20 mg/kg), sitagliptin high-dose group (60 mg/kg) and system positive compound OCA group (20 mg/kg). The mice were administered by oral gavage. The OCA group was administered once a day, and the other groups were administered twice a day. During the administration period, the animals' food intake and body weight were monitored. After 3 weeks of administration, the blood was taken from the retro-ocular venous plexus of the mice, and serum ALT and AST indexes were detected. After 6 weeks of administration, the blood was taken from the retro-ocular venous plexus of the mice and then the mice were killed by dislocation. The liver was taken and weighed, part of the liver was fixed with 4% paraformaldehyde, and part of the liver was frozen at −80° C. During the whole experiment, another 10 mice in the same cage were injected intraperitoneally with the same dose of olive oil as a normal control group (WT). This experiment reflected whether the compound had the effect of relieving liver fibrosis by detecting the levels of liver function indexes ALT and AST in serum, the content of hydroxyproline (a characteristic amino acid of collagen) in the liver, and liver pathological changes (Sirius scarlet staining) and the like.

The subject of test [3] is CCl4 induced liver fibrosis model mice. As to the kind of experiment: CCl4 induced liver fibrosis model mice, long-term oral administration (Example 4). The test is classed as in vivo. The settings on record: for serum ALT level / serum AST level: 20 and 60 mg/kg oral gavage twice a day. The procedure: In this experiment, CCl4 induced liver fibrosis model mice were used to investigate the effect of long-term oral administration of compound DC291407 on liver fibrosis in the model mice.
Animal experiment: Male C57BL/6j mice were injected intraperitoneally with 2 mL/kg, 10% CCl4 (dissolved in olive oil) three times a week to induce liver fibrosis model. Two weeks after modeling, the blood was taken from the retro-ocular venous plexus of the mice, and serum ALT and AST indexes were detected. According to ALT, AST, body weight and other indexes, the mice were randomly divided into 5 groups, each with 10 mice. There were the model control group (vehicle), DC291407 low-dose group (20 mg/kg), DC291407 high-dose group (60 mg/kg), positive compound OCA low-dose group (20 mg/kg), OCA high-dose group (40 mg/kg), respectively, and mice were administered by oral gavage. DC291407 was administered twice a day, and the other groups were administered once a day. During the administration period, the animals' food intake and body weight were monitored. After 3 weeks of administration, the blood was taken from the retro-ocular venous plexus of the mice, and serum ALT and AST indexes were detected. After 6 weeks of administration, the blood was taken from the retro-ocular venous plexus of the mice and then the mice were killed by dislocation. The liver was taken and weighed, part of the liver was fixed with 4% paraformaldehyde, and part of the liver was frozen at −80° C. During the whole experiment, another 10 mice in the same cage were injected intraperitoneally with the same dose of olive oil as a normal control group (WT). This experiment reflected whether the compound had the effect of relieving liver fibrosis by detecting the levels of liver function indexes ALT and AST in serum, the expression of α-SMA and Col1α1 gene levels in the liver, the content of hydroxyproline (a characteristic amino acid of collagen) in the liver, and liver pathological changes (Sirius scarlet staining) and the like.

Test [4] deals with NAFLD model of ob/ob mice induced by high-fat diet. Description: NAFLD model of ob/ob mice induced by high-fat diet (Example 5). The test is classed as in vivo. The settings on record: 8 weeks. The procedure:
In this experiment, the NAFLD model of ob/ob mice induced by high-fat diet was used to investigate the treatment effect of long-term oral administration of compound DC291407 on NAFLD.
Animal experiment: ob/ob obese mice were divided into 3 groups according to random blood glucose, random body weight, fasting blood glucose, and fasting body weight at the 8th week of age, with 9 mice in each group. There were the model control group (vehicle) and the DC291407 group (20 mg/kg), the positive compound Alogliptin group (20 mg/kg), respectively and mice were administered by oral gavage, twice a day. A group of 6 normal mice in the same cage was set up as a normal control group (WT). Except for the WT group, they were fed with normal feed, and the rest groups were fed with high-fat feed. The administration was continued for 8 weeks. During the administration, the animal's food intake and body weight were monitored. After the last administration, the animals were fasted for 6 hours and allowed to drink water freely. Then the body weight was measured, the blood was collected from the retro-ocular venous plexus, and liver was dissected. Part of the liver was placed in 4% paraformaldehyde, and the rest was stored in a refrigerator at −80° C. This experiment reflected whether the compound had the treating effect on NAFLD by detecting the levels of liver function indexes ALT and AST in the serum, the contents of TC and TG in the liver, the NAS score of liver pathology (HE staining) and the like.

Setting [5] is: after 3 weeks of administration.
Where [6] appears, read: after 6 weeks of administration.
The mark [7] stands for this setting: 20 mg/kg oral gavage twice a day.

“Also recorded” adds a separate entry of the source.

Consider `N#Cc1ccccc1Cn1c(N2CCC[C@@H](N)C2)nc2cc(C(=O)O)sc2c1=O` [DC291410, (R)-2-(3-aminopiperidin-1-yl)-3-(2-cyanobenzyl)-4-carbonyl-3,4-dihydrothieno[3,2-d]pyrimidine-6 carboxylic acid], for which, in test [1], the “inhibitory activity on HSC activation compared with positive control Alogliptin” value is listed as “better than that of the positive control Alogliptin” and the “inhibition of the activation of hepatic stellate cells HSC” value is listed as “concentration-dependently inhibited”.

Take `N[C@@H](CC(=O)N1CCn2c(nnc2C(F)(F)F)C1)Cc1cc(F)c(F)cc1F` [sitagliptin, reference compound]: in test [2] (high-dose group 60 mg/kg), the “ALT level in serum” value is listed as “significantly reduced” and the “AST level in serum” value is “significantly reduced”. Also, in test [2] (low-dose group 6 mg/kg), the “ALT level in serum” value is on record as “no effect”; the “AST level in serum” value is given as “no effect”; the “collagen content in the liver (Sirius scarlet stained sections, quantitative analysis)” value is recorded as “significantly reduce the collagen content in the liver”. For the same molecule, in test [2] (middle-dose group 20 mg/kg), the “AST level in serum” value was “significantly reduced”.

In the case of `COC(=O)c1cc2nc(N3CCC[C@@H](N)C3)n(Cc3ccccc3C#N)c(=O)c2s1` [DC291407, (R)-methyl-2-(3-aminopiperidin-1-yl)-3-(2-cyanobenzyl)-4-carbonyl-3,4-dihydrothieno[3,2-d]pyrimidine-6 carboxylic acid], in test [3] (setting [5]), the “serum ALT level” value is listed as “no decrease” and the “serum AST level” value was “no decrease”. Also, in test [3] (setting [6]), the “collagen content in the liver (Sirius scarlet stained pathological sections, quantitative analysis)” value was “reduce the collagen content in the liver without statistical difference”; the “content of hydroxyproline in liver tissues” value is “reduced”; the “expression of Col1α1 mRNA in liver tissues” value was “significantly down-regulated”; the “expression of α-SMA mRNA in liver tissues” value was “significantly down-regulated”. In test [3] (setting [6]), the “serum ALT level” value is “significantly reduced” and the “serum AST level” value was “significantly reduced”. In addition, in test [1], the “inhibitory activity on HSC activation compared with positive control Alogliptin” value is recorded as “better than that of the positive control Alogliptin” and the “inhibition of the activation of hepatic stellate cells HSC” value is on record as “concentration-dependently inhibited; also recorded: had an inhibitory effect”. Moreover, in test [4] (20 mg/kg each, twice a day), the “effect on serum ALT, AST and liver TG compared with alogliptin” value was “equivalent to that of alogliptin”; the “effect on steatosis compared with alogliptin” value is on record as “better than that of alogliptin”; the “overall improvement effect on NAS score compared with alogliptin” value was “equivalent to that of alogliptin”. In test [4] (setting [7]), the “content of TG in liver tissue” value is listed as “significantly reduce”; the “level of ALT in serum” value is listed as “significantly reduce”; the “level of AST in serum” value is “significantly reduce”; the “lobular inflammation (NAS score, HE stained liver sections)” value is given as “a certain alleviating effect”. Also, the “steatosis (NAS score, HE stained liver sections)” value in test [4] (setting [7]) is listed as “improve steatosis”. In addition, in test [2] (high-dose group 60 mg/kg), the “ALT level in serum” value is listed as “significantly reduce” and the “collagen content in the liver (Sirius scarlet stained sections, quantitative analysis)” value is on record as “reduce the collagen content in the liver without dose dependence”. Besides, in test [2] (low-dose group 6 mg/kg), the “ALT level in serum” value is on record as “significantly reduce”; the “AST level in serum” value is recorded as “significantly reduce”; the “collagen content in the liver (Sirius scarlet stained sections, quantitative analysis)” value was “reduce the collagen content in the liver without dose dependence”; the “content of hydroxyproline in liver tissues” value was “reduced the content of hydroxyproline in liver tissues without statistics significance”. In addition, in test [2] (middle-dose group 20 mg/kg), the “ALT level in serum” value is listed as “significantly reduce”; the “AST level in serum” value was “significantly reduce”; the “collagen content in the liver (Sirius scarlet stained sections, quantitative analysis)” value is “reduce the collagen content in the liver without dose dependence”.
